Experimental findings from US20260297060A1, “COMPOUNDS FOR THE DEGRADATION OF MUTANT BRAF” (C4 THERAPEUTICS, INC., priority 2023, published 2026) are described below.

As a reminder, the Emax is the size of the effect at its maximum, as opposed to the concentration needed.

Read-outs that look alike come from different tables or passages of the source.

The assay deals with T1, BRAF V600E (Homo sapiens, UniProt P15056+Q96SW2, V600E).
T1 construct: knock-in of the HiBiT tag to the endogenous BRAF V600E locus; host or cells: A375.10 (A375 clonal line, CRISPR HiBiT knock-in at the endogenous BRAF V600E locus)
T1 sequence (P15056 whole entry V600E): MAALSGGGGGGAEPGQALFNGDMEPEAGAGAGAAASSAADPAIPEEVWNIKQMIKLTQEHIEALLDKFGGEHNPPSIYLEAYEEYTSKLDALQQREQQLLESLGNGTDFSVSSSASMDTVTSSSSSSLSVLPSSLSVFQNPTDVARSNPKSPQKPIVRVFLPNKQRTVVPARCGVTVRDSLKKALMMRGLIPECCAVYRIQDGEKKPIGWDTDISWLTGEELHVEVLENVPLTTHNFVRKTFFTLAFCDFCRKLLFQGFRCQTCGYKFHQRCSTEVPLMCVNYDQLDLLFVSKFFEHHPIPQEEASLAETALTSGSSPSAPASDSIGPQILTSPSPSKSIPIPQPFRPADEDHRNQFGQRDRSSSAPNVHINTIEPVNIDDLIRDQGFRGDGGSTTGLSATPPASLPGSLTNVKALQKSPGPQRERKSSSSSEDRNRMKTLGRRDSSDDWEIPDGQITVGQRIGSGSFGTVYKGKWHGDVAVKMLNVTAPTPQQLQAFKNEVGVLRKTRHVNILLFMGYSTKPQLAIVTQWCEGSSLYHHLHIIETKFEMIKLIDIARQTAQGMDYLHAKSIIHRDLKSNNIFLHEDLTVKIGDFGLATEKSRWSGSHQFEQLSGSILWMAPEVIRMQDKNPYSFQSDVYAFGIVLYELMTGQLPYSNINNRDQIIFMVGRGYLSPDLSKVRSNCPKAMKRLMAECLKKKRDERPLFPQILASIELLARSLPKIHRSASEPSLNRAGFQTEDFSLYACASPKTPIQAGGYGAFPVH
T1 sequence (Q96SW2 whole entry): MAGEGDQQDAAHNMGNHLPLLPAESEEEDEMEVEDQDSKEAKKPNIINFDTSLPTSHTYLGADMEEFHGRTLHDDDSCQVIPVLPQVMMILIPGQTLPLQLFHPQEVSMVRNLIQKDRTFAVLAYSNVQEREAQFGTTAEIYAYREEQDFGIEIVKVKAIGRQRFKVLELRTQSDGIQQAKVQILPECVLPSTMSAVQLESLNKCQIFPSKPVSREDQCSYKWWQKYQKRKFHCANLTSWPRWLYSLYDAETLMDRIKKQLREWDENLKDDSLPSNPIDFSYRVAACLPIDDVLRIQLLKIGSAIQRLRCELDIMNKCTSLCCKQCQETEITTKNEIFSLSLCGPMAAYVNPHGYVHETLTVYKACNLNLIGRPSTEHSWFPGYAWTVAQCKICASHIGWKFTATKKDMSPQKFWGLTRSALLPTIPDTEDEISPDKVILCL
T1 sequence (Q16531 whole entry partner): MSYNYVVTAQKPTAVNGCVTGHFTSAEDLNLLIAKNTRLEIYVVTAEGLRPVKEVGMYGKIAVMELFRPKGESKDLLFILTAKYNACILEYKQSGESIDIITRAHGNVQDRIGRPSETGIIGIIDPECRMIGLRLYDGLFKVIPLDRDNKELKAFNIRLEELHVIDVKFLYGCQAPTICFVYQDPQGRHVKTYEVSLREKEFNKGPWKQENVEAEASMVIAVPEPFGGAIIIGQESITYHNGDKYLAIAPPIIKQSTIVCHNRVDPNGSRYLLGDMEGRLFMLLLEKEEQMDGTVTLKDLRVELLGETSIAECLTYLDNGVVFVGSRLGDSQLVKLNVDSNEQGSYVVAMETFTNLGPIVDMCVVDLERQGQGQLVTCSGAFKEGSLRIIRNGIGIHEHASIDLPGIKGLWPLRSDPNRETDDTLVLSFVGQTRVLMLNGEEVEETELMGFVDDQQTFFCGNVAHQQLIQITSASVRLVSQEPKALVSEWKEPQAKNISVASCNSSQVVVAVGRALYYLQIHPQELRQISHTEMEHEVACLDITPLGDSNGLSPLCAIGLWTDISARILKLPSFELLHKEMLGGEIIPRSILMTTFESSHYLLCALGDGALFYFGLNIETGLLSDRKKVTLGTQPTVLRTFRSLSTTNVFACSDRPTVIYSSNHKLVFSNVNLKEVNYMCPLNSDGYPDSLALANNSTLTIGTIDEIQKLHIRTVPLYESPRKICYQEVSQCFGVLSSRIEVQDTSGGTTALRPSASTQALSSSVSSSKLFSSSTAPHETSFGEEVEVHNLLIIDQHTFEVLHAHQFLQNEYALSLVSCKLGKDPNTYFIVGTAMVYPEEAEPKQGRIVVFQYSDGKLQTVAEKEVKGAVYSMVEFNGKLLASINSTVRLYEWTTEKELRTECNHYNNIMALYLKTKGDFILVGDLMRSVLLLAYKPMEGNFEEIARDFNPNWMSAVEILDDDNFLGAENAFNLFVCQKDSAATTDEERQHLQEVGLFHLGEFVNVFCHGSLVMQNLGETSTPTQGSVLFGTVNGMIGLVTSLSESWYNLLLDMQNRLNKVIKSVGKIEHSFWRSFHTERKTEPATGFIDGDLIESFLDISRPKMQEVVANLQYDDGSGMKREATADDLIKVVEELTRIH
As to the kind of experiment: BRAF V600E HiBiT Degradation Assay. Format: cell-based. The essentials:
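Endogenous HiBiT knock-in on BRAF V600E in A375 cells (clone A375.10); 11-point half-log series, top 10 μM, 2, 6 or 24 h at 37° C. Lytic HiBiT luminescence, background-subtracted, normalized to DMSO; 4-parameter fit gives DC50, Emax (residual protein) and IP (inflection point).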
(With HiBiT, luminescence reflects the tagged protein that the partner subunit can reach.)

Setting [1] is: A375.10 cells, BRAF V600E, 2 hours, inflection point, read-out: HiBiT-Degradation A375.10 BRAF 2 hours IP.
The mark [2] stands for this setting: A375.10 cells, BRAF V600E, 2 hours, read-out: HiBiT-Degradation A375.10 BRAF 2 hours DC50.
Where [3] appears, read: read-out: HiBiT-Degradation A375.10 BRAF 2 hours Emax, A375.10 cells, BRAF V600E, 2 hours, residual protein remaining.
[4] abbreviates: A375.10 cells, BRAF V600E, 2 hours, residual protein remaining, read-out: HiBiT-Degradation A375.10 BRAF 2 hours Emax.
The mark [5] stands for this setting: A375.10 cells, BRAF V600E, 6 hours, inflection point, read-out: HiBiT-Degradation A375.10 BRAF 6 hours IP.
[6] abbreviates: A375.10 cells, BRAF V600E, 6 hours, read-out: HiBiT-Degradation A375.10 BRAF 6 hours DC50.
[7] abbreviates: A375.10 cells, BRAF V600E, 6 hours, residual protein remaining, read-out: HiBiT-Degradation A375.10 BRAF 6 hours Emax.
[8] abbreviates: A375.10 cells, HiBiT, BRAF V600E, 24 hours, read-out: HiBiT-Degradation A375.10 BRAF 24 hours DC50.
Where [9] appears, read: A375.10 cells, HiBiT, BRAF V600E, 24 hours, read-out: HiBiT-Degradation A375.10 BRAF 24 hours Emax.
[10] abbreviates: A375.10 cells, HiBiT, BRAF V600E, 24 hours, read-out: HiBiT-Degradation A375.10 BRAF 24 hours IP.
Where [11] appears, read: A375.10 cells, HiBiT, BRAF V600E, 24 hours.

Turning to `Cn1nc(N2CCC(=O)NC2=O)c2cc(F)c(N3CC4(CC(N5CCC6(CC5)CC(n5cnc7ccc(Oc8c(F)ccc(NS(=O)(=O)C9CCCC9)c8C#N)cc7c5=O)C6)C4)C3)cc21` [Compound 250, N-[2-cyano-3-[3-[7-[2-[3-(2,4-dioxohexahydropyrimidin-1-yl)-5-fluoro-1-methyl-indazol-6-yl]-2-azaspiro[3.3]heptan-6-yl]-7-azaspiro[3.5]nonan-2-yl]-4-oxo-quinazolin-6-yl]oxy-4-fluoro-phenyl]cyclopentanesulfonamide], the DC50 reads like this: under setting [1], below 1000 nM; under setting [2], below 1000 nM. Also, the Emax under setting [3] is below 50%.
On to `CC(C)S(=O)(=O)Nc1ccc(F)c(Oc2ccc3ncn(C4CC5(CCN(C6CCC(c7cc8c(cc7F)c(N7CCC(=O)NC7=O)nn8C)CC6)CC5)C4)c(=O)c3c2)c1C#N` (single isomer, unassigned) [Compound 95, N-[2-cyano-3-[3-[7-[4-[3-(2,4-dioxohexahydropyrimidin-1-yl)-5-fluoro-1-methyl-indazol-6-yl]cyclohexyl]-7-azaspiro[3.5]nonan-2-yl]-4-oxo-quinazolin-6-yl]oxy-4-fluoro-phenyl]propane-2-sulfonamide], for which the DC50 is, setting by setting: under setting [1], below 1000 nM; under setting [2], below 1000 nM; under setting [5], below 1000 nM; under setting [6], below 1000 nM; under setting [8], below 1000 nM; under setting [10], below 1000 nM. Also, the Emax is below 50% under setting [4], below 50% under setting [7] and below 50% under setting [9].
For the compound `CCN(C)S(=O)(=O)Nc1ccc(F)c(Oc2ccc3ncn([C@H]4COC5(CCC(N6CCC(c7cc8c(cc7F)c(N7CCC(=O)NC7=O)nn8C)C(F)(F)C6)CC5)C4)c(=O)c3c2)c1C#N` (single isomer, unassigned) [Compound 38], the DC50 is below 1000 nM under setting [1]; below 1000 nM under setting [2]; below 1000 nM under setting [5]; below 1000 nM under setting [6]; below 1000 nM under setting [8]; below 1000 nM under setting [10]. Also, the Emax reads like this: under setting [7], below 50%; under setting [9], below 50%; under setting [3], below 50%.
With `CC(C)S(=O)(=O)Nc1ccc(F)c(Oc2ccc3ncn(C4CC5(CCN(C6CC7(C6)CN(c6cc8c(cc6F)c(N6CCC(=O)NC6=O)nn8C)C7)CC5)C4)c(=O)c3c2)c1C#N` (stereo not drawn) [Compound 273, N-[2-cyano-3-[3-[7-[2-[3-(2,4-dioxohexahydropyrimidin-1-yl)-5-fluoro-1-methyl-indazol-6-yl]-2-azaspiro[3.3]heptan-6-yl]-7-azaspiro[3.5]nonan-2-yl]-4-oxo-quinazolin-6-yl]oxy-4-fluoro-phenyl]propane-2-sulfonamide], the DC50 is, setting by setting: under setting [1], below 1000 nM; under setting [2], below 1000 nM. In addition, the Emax under setting [3] is below 50%.
With `CCN(C)S(=O)(=O)Nc1ccc(F)c(Oc2ccc3ncn([C@H]4COC5(CCN(C6CC(c7cc8c(cc7F)c(N7CCC(=O)NC7=O)nn8C)C6)CC5)C4)c(=O)c3c2)c1C#N` (single isomer, unassigned) [Compound 70], the “HiBiT-Degradation A375.10 BRAF 2 hours IP” value (A375.10 cells, BRAF V600E, 2 hours, inflection point) was “*** (<=1 μM)”. Besides, the Emax is below 50% under setting [4], below 50% under setting [7] and below 50% under setting [9]. The “HiBiT-Degradation A375.10 BRAF 6 hours IP” value (A375.10 cells, BRAF V600E, 6 hours, inflection point) is on record as “*** (<=1 μM)”. In addition, the “HiBiT-Degradation A375.10 BRAF 24 hours IP” value under setting [11] is “*** (<=1 μM)”. For the same compound, the DC50 was below 1000 nM (read-out: HiBiT-Degradation A375.10 BRAF 2 hours DC50, A375.10 cells, BRAF V600E, 2 hours); below 1000 nM (read-out: HiBiT-Degradation A375.10 BRAF 6 hours DC50, A375.10 cells, BRAF V600E, 6 hours); below 1000 nM (read-out: HiBiT-Degradation A375.10 BRAF 24 hours DC50, A375.10 cells, HiBiT, BRAF V600E, 24 hours).
For the compound `CCN(C)S(=O)(=O)Nc1ccc(F)c(Oc2ccc3ncn([C@H]4COC5(CCN(C6CCC(c7ccc(N[C@H]8CCC(=O)NC8=O)cc7F)CC6)CC5)C4)c(=O)c3c2)c1C#N` (single isomer, unassigned) [Compound 3], the DC50 by setting is: under setting [1], below 1000 nM; under setting [2], below 1000 nM; under setting [5], below 1000 nM; under setting [6], below 1000 nM; under setting [8], below 1000 nM; under setting [10], below 1000 nM. Also, the Emax runs as follows: under setting [4], below 50%; under setting [7], below 50%; under setting [9], below 50%.
On to `CCN(C)S(=O)(=O)Nc1ccc(F)c(Oc2ccc3ncn([C@@H]4COC5(CCN(C6CCC(c7ccc(NC8CCC(=O)NC8=O)cc7F)CC6)CC5)C4)c(=O)c3c2F)c1C#N` (single isomer, unassigned) [Compound 52], for which the DC50 is below 1000 nM under setting [1]; below 1000 nM under setting [2]; below 1000 nM under setting [5]; below 1000 nM under setting [6]; below 1000 nM under setting [8]; below 1000 nM under setting [10]. The Emax reads like this: under setting [4], below 50%; under setting [7], below 50%; under setting [9], below 50%.
Take `CCN(C)S(=O)(=O)Nc1ccc(F)c(Oc2ccc3ncn(C4CC5(CCN(C6CC7(C6)CN(c6cc8c(cc6F)c(N6CCC(=O)NC6=O)nn8C)C7)CC5)C4)c(=O)c3c2)c1C#N` (stereo not drawn) [Compound 141, 6-[2-cyano-3-[[ethyl(methyl)sulfamoyl]amino]-6-fluoro-phenoxy]-3-[7-[2-[3-(2,4-dioxohexahydropyrimidin-1-yl)-5-fluoro-1-methyl-indazol-6-yl]-2-azaspiro[3.3]heptan-6-yl]-7-azaspiro[3.5]nonan-2-yl]-4-oxo-quinazoline]: the DC50 under setting [1] is below 1000 nM; the DC50 under setting [2] was below 1000 nM; the DC50 under setting [5] was below 1000 nM; the DC50 under setting [6] was below 1000 nM; the DC50 under setting [8] is below 1000 nM; the DC50 under setting [10] was below 1000 nM. The maximal response (Emax) is below 50% under setting [7], below 50% under setting [9] and below 50% under setting [3].
For the compound `CCN(C)S(=O)(=O)Nc1ccc(F)c(Oc2ccc3ncn([C@@H]4C[C@@H]5CN(C6CCC(c7ccc(NC8CCC(=O)NC8=O)cc7F)CC6)C[C@@H]5C4)c(=O)c3c2)c1C#N` (single isomer, unassigned) [Compound 21], the DC50 under setting [1] was below 1000 nM; the DC50 under setting [2] was below 1000 nM; the DC50 under setting [5] is below 1000 nM; the DC50 under setting [6] was below 1000 nM; the DC50 under setting [8] is below 1000 nM; the DC50 under setting [10] was below 1000 nM. In addition, the Emax is below 50% under setting [4], below 50% under setting [7] and below 50% under setting [9].
On to `CCN(C)S(=O)(=O)Nc1ccc(F)c(Oc2ccc3ncn(CC4CCN(C5CCC(c6cc7c(cc6F)c(N6CCC(=O)NC6=O)nn7C)CC5)CC4)c(=O)c3c2)c1C#N` (single isomer, unassigned) [Compound 126, 6-[2-cyano-3-[[ethyl(methyl)sulfamoyl]amino]-6-fluoro-phenoxy]-3-[[1-[4-[3-(2,4-dioxohexahydropyrimidin-1-yl)-5-fluoro-1-methyl-indazol-6-yl]cyclohexyl]-4-piperidyl]methyl]-4-oxo-quinazoline], for which the DC50 under setting [1] was below 1000 nM; the DC50 under setting [2] is below 1000 nM; the DC50 under setting [5] was below 1000 nM; the DC50 under setting [6] was below 1000 nM; the DC50 under setting [8] was below 1000 nM; the DC50 under setting [10] was below 1000 nM. The Emax under setting [4] was below 50%, the Emax under setting [7] is below 50% and the Emax under setting [9] was below 50%.
For `CCN(C)S(=O)(=O)Nc1ccc(F)c(Oc2ccc3ncn(C4CC5(CCN(C6CCC(c7cc8c(cc7F)c(N7CCC(=O)NC7=O)nn8C)CC6F)CC5)C4)c(=O)c3c2)c1C#N` (single isomer, unassigned) [Compound 85], the “HiBiT-Degradation A375.10 BRAF 2 hours Emax” value is reported as “*** (<=50%)”. Moreover, the DC50 under setting [1] is below 1000 nM. Further, under setting [2], the DC50 was below 1000 nM.
For `CCN(C)S(=O)(=O)Nc1ccc(F)c(Oc2ccc3ncn(C4CC5(C4)CN(C4CCC(c6cc7c(cc6F)c(N6CCC(=O)NC6=O)nn7C)CC4)C5)c(=O)c3c2)c1C#N` (single isomer, unassigned) [Compound 204, 6-[2-cyano-3-[[ethyl(methyl)sulfamoyl]amino]-6-fluoro-phenoxy]-3-[2-[4-[3-(2,4-dioxohexahydropyrimidin-1-yl)-5-fluoro-1-methyl-indazol-6-yl]cyclohexyl]-2-azaspiro[3.3]heptan-6-yl]-4-oxo-quinazoline], the “HiBiT-Degradation A375.10 BRAF 2 hours Emax” value is “*** (<=50%)”. The DC50 under setting [1] was below 1000 nM. Besides, the DC50 under setting [2] was below 1000 nM. In addition, the “HiBiT-Degradation A375.10 BRAF 24 hours Emax” value under setting [11] is on record as “*** (<=50%)”. Moreover, the DC50 under setting [8] was below 1000 nM. Further, the DC50 under setting [10] is below 1000 nM.
